Measurements reported in patent publication US6544989B2, “Benzazoles: benzoxazole, benzthiazole and benzimidazole derivatives” (Syngenta Limited, priority 1998, dated 2003).
Like-named read-outs stand apart in the source and are kept apart here. Marks after values point to notes of the source that are not given here.

Columns and labels:
[1] = tested on: Erysiphe graminis f.sp. tritici; experiment: Fungicidal test, Erysiphe graminis f.sp. tritici (ERYSGT) on wheat, PRCO; format: in vivo; settings: for ERYSGT 1 d Prot/Foir PRCO: METHOD 2 (unbanded); for ERYSGT 6 hr Prot/Foir PRCO: METHOD 1 (values marked *)
Pyricularia oryzae = format: in vivo; settings: METHOD 2 (unbanded)
Meloidogyne incognita = experiment: Nematode test, J2 infective juveniles of Meloidogyne incognita, mortality; settings: 12.5 ppm; J2 infective juveniles suspended in solution; mortality after three days
Uncinula necator = experiment: Fungicidal test, Uncinula necator (UNCINE) on vines, PRCO; format: in vivo; settings: METHOD 2 (unbanded)
Plasmopara viticola = experiment: Fungicidal test, Plasmopara viticola (PLASVI) on vines, PRCO; format: in vivo
Septoria nodorum = experiment: Fungicidal test, Septoria nodorum (LEPTNO) on wheat, PRCO; format: in vivo
Musca domestica = settings: 500 ppm by weight; knockdown assessed 15 minutes after treatment
Protocol: The activities of individual compounds of formula (I) were determined using a variety of pests. With the exception of nematodes, the pests were treated with a liquid composition containing 500 parts per million (ppm) by weight of a compound unless otherwise stated. Each composition was made by dissolving the compound in an acetone and ethanol (50:50 by volume) mixture and diluting the solution with water containing 0.05% by volume of a wetting agent, SYNPERONIC NP8, until the liquid composition contained the required concentration of the compound.
The test procedure adopted with regard to each pest, except nematodes, was essentially the same and composed supporting a number of the pests on a medium which was usually a substrate, a host plant or a foodstuff on which the pests feed, and treating either or both the medium and the pests with a composition. Pest mortality was assessed usually between three and five days after treatment Knockdown of housefly (Musca domestica) was assessed 15 minutes after treatment

[2] = tested on: Phytophthora infestans lycopersici; format: in vivo
Puccinia recondita = experiment: Fungicidal test, Puccinia recondita (PUCCRT) on wheat, PRCO; format: in vivo
Rhizoctonia solani = experiment: Fungicidal test, Rhizoctonia solani (RHIZSO) on rice, PRCO; format: in vivo; settings: METHOD 2 (unbanded)
Venturia inaequalis = experiment: Fungicidal test, Venturia inaequalis (VENTIN) on apples, PRCO; format: in vivo; settings: METHOD 2 (unbanded)

SMILES | ERYSGT 1 d Prot/Foir PRCO [1] | PYRIOR 1 d Prot/Foir PRCO (Pyricularia oryzae) | MELGIN = Meloidogyne incognita, grading of mortality (score) (Meloidogyne incognita) | UNCINE 1 d Prot/Foir PRCO (Uncinula necator) | PLASVI 1 d Prot/Foir PRCO (Plasmopara viticola; METHOD 2 (unbanded)) | LEPTNO 1 d Prot/Foir PRCO (Septoria nodorum; METHOD 2 (unbanded)) | MUSCDO AC = Musca domestica (knockdown), score (Musca domestica) | PHYTIN 1 d Prot/Foir PRCO ([2]; METHOD 2 (unbanded)) | PUCCRT 1 d Prot/Foir PRCO (Puccinia recondita; METHOD 2 (unbanded)) | RHIZSO 1 d Prot/Foir PRCO (Rhizoctonia solani) | VENTIN 1 d Prot/Foir PRCO (Venturia inaequalis) | ERYSGT 6 hr Prot/Foir PRCO [1] | PLASVI 1 d Prot/Foir PRCO (Plasmopara viticola; METHOD 1 (values marked *)) | LEPTNO 1 d Prot/Foir PRCO (Septoria nodorum; METHOD 1 (values marked *)) | PHYTIN 1 d Prot/Foir PRCO ([2]; METHOD 1 (values marked *)) | PUCCRT 1 d Prot/Foir PRCO (Puccinia recondita; METHOD 1 (values marked *))
CCC(CC)c1nc2cc(CC(=O)Nc3snc(C)c3Cl)ccc2o1 [13(A3)] | 100 | 96 | 0 (0 indicates less than 40% mortality) | 100 | 100 | 58 | 9 (9 indicates 80-100% mortality) | 93 | 100 | 19 | 53 |  |  |  |  | 
CC=C(C)c1nc2cc(CC(=O)Nc3snc(C)c3Cl)ccc2o1 [47(A3)] | 86 | 88 | 0 (0 indicates less than 40% mortality) | 98 | 92 | 63 | 0 (0 indicates less than 40% mortality) |  | 99 | 0 | 37 |  |  |  |  | 
Cc1nsc(NC(=S)Cc2ccc3oc(CC(C)(C)C)nc3c2)c1Cl [15(V3)] | 87 | 100 | 0 (0 indicates less than 40% mortality) | 100 |  | −2 | 0 (0 indicates less than 40% mortality) | 100 | 100 | 0 | 10 |  |  |  |  | 
Cc1nsc(NC(=O)Cc2ccc3oc(-c4ccc(Cl)cc4Cl)nc3c2)c1Cl [257(A3)] |  |  | 5 (5 indicates 40-79% mortality) | 61 |  |  | 0 (0 indicates less than 40% mortality) |  |  | 11 | 0 | 0* | 79* | 0* | 0* | 100*
CCSc1nc2cc(CC(=O)Nc3snc(C)c3Cl)ccc2o1 [221(A3)] | 50 | 93 | 0 (0 indicates less than 40% mortality) | 23 | 84 | 20 | 9 (9 indicates 80-100% mortality) | 99 | 99 | 0 | 25 |  |  |  |  | 
CSc1nc2cc(CC(=O)Nc3snc(C)c3Cl)ccc2o1 [220(A3)] | 12 |  | 0 (0 indicates less than 40% mortality) | −5 | 6 | 17 | 5 (5 indicates 40-79% mortality) |  |  | 0 | 11 |  |  |  | 100* | 100*
CC(C)=Cc1nc2cc(CC(=O)Nc3snc(C)c3Cl)ccc2o1 [46(A3)] | 97 | 92 | 0 (0 indicates less than 40% mortality) | 100 | 99 | 88 | 5 (5 indicates 40-79% mortality) |  | 100 | 0 | 84 |  |  |  |  | 
Cc1nsc(NC(=O)Cc2ccc3oc(CCc4ccccc4)nc3c2)c1Cl [247(A3)] | 61 | 85 | 0 (0 indicates less than 40% mortality) | 95 | 62 | 13 | 0 (0 indicates less than 40% mortality) | 97 | 95 | 0 | −11 |  |  |  |  | 
Cc1nsc(NC(=O)Cc2ccc3nc(CC(C)(C)C)oc3c2)c1Cl [15(A23)] | 62 | 80 | 0 (0 indicates less than 40% mortality) | 100 |  | 83 | 0 (0 indicates less than 40% mortality) | 100 | 98 | 0 | 100 |  |  |  |  | 
Cc1nsc(N(C)C(=O)Cc2ccc3oc(CC(C)(C)C)nc3c2)c1Cl [15(B3)] | 75 | 69 | 0 (0 indicates less than 40% mortality) | 100 | 79 | −2 | 0 (0 indicates less than 40% mortality) | 99 | 15 | 29 | 5 |  |  |  |  | 
Cc1nsc(NC(=O)Cc2ccc3oc(-c4cc(Cl)cc(Cl)c4)nc3c2)c1Cl [261(A3)] | 19 | 31 | 0 (0 indicates less than 40% mortality) | 17 | 25 | −7 | 0 (0 indicates less than 40% mortality) | 0 | 3 | 0 | 0 |  |  |  |  | 
Cc1nsc(NC(=O)Cc2ccc3oc(SC(C)(C)C)nc3c2)c1Cl [224(A3)] | 88 | 91 | 0 (0 indicates less than 40% mortality) | 91 | 99 | 16 | 0 (0 indicates less than 40% mortality) | 100 | 98 | 0 | 60 |  |  |  |  | 
Cc1nsc(NC(=O)Cc2ccc3oc(-c4ccc(C(C)(C)C)cc4)nc3c2)c1Cl [252(A3)] | 30 | 46 | 0 (0 indicates less than 40% mortality) | 79 | 38 | −13 | 0 (0 indicates less than 40% mortality) |  | 97 | 0 | −47 |  |  |  |  | 
CCC(C)c1nc2cc(CC(=O)Nc3snc(C)c3Cl)ccc2o1 (stereo not shown) [10(A3)] | 98 | 77 | 0 (0 indicates less than 40% mortality) | 96 | 87 | 28 | 5 (5 indicates 40-79% mortality) | 100 | 100 | 0 | 40 |  |  |  |  | 
Cc1nsc(NC(=O)Cc2ccc3oc(-c4ccccc4)nc3c2)c1Cl [248(A3)] |  |  | 0 (0 indicates less than 40% mortality) | 7 |  |  | 0 (0 indicates less than 40% mortality) |  |  | 7 | 100 | 0* | 97* | 0* | 17* | 100*
Cc1nsc(NC(=O)Cc2ccc3oc(COc4ccccc4)nc3c2)c1Cl [140(A3)] | 44 |  | 0 (0 indicates less than 40% mortality) | 99 | 63 | 13 | 0 (0 indicates less than 40% mortality) |  | 96 | 0 | 70 |  |  |  |  | 
Cc1nsc(NC(=O)Cc2ccc3oc(C(C)C)nc3c2)c1Cl [8(A3)] | 20 |  | 0 (0 indicates less than 40% mortality) | 40 | 6 | 0 | 9 (9 indicates 80-100% mortality) |  | 90 | 0 | 26 |  |  |  |  | 
CCc1nc2cc(CC(=O)Nc3snc(C)c3Cl)ccc2o1 [3(A3)] | 4 |  | 0 (0 indicates less than 40% mortality) | 27 | 14 | 33 | 9 (9 indicates 80-100% mortality) |  | 98 | 0 | 67 |  |  |  |  | 
